System: IGROV1 complex spheroids (HUVEC, MSC), viability % test/control
Test: Anticancer human tumor IGROV1 cell line growth inhibition [GQUAD];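 further: spheroids exposed to compounds for 7 days before readout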;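 on viability, T/C: 100% = DMSO vehicle control viability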
Conditions: for IC50: curve of first compound; for viability, T/C: stronger effect = lower value
How it was run: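 Tumor cells were grown as complex spheroids with HUVEC endothelial cells and mesenchymal stem cells as stroma. G-quadruplex stabilizers were combined with targeted agents over half-log dilutions from near the clinical Cmax, or from 10 microM.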

[1] = second compound 0.0316 µM, first compound 0.000999 µM
[2] = second compound 0.0316 µM, first compound 0.00316 µM
[3] = second compound 0.0316 µM, first compound 0.00999 µM
[4] = second compound 0.0316 µM, first compound 0.0316 µM
[5] = second compound 0.0316 µM, first compound 0.0999 µM
[6] = second compound 0.0316 µM, first compound 0.316 µM
[7] = second compound 0.1 µM, first compound 0.000999 µM
[8] = second compound 0.1 µM, first compound 0.00316 µM
[9] = second compound 0.1 µM, first compound 0.00999 µM
[10] = second compound 0.1 µM, first compound 0.0316 µM
[11] = second compound 0.1 µM, first compound 0.0999 µM
[12] = second compound 0.1 µM, first compound 0.316 µM
[13] = second compound 0.316 µM, first compound 0.000999 µM
[14] = second compound 0.316 µM, first compound 0.00316 µM
[15] = second compound 0.316 µM, first compound 0.00999 µM
[16] = second compound 0.316 µM, first compound 0.0316 µM
[17] = second compound 0.316 µM, first compound 0.0999 µM
[18] = second compound 0.316 µM, first compound 0.316 µM
[19] = second compound 1 µM, first compound 0.000999 µM
[20] = second compound 1 µM, first compound 0.00316 µM
[21] = second compound 1 µM, first compound 0.00999 µM
[22] = second compound 1 µM, first compound 0.0316 µM
[23] = second compound 1 µM, first compound 0.0999 µM
[24] = second compound 1 µM, first compound 0.316 µM
[25] = second compound 3.16 µM, first compound 0.000999 µM
[26] = second compound 3.16 µM, first compound 0.00316 µM
[27] = second compound 3.16 µM, first compound 0.00999 µM
[28] = second compound 3.16 µM, first compound 0.0316 µM
[29] = second compound 3.16 µM, first compound 0.0999 µM
[30] = second compound 3.16 µM, first compound 0.316 µM
[31] = second compound 10 µM, first compound 0.000999 µM
[32] = second compound 10 µM, first compound 0.00316 µM
[33] = second compound 10 µM, first compound 0.00999 µM
[34] = second compound 10 µM, first compound 0.0316 µM
[35] = second compound 10 µM, first compound 0.0999 µM
[36] = second compound 10 µM, first compound 0.316 µM
[37] = second compound 0.0316 µM, first compound 0.1 µM
[38] = second compound 0.0316 µM, first compound 1 µM
[39] = second compound 0.0316 µM, first compound 3.16 µM
[40] = second compound 0.0316 µM, first compound 10 µM
[41] = second compound 0.1 µM, first compound 0.1 µM
[42] = second compound 0.1 µM, first compound 1 µM
[43] = second compound 0.1 µM, first compound 3.16 µM
[44] = second compound 0.1 µM, first compound 10 µM
[45] = second compound 0.316 µM, first compound 0.1 µM
[46] = second compound 0.316 µM, first compound 1 µM
[47] = second compound 0.316 µM, first compound 3.16 µM
[48] = second compound 0.316 µM, first compound 10 µM
[49] = second compound 1 µM, first compound 0.1 µM
[50] = second compound 1 µM, first compound 1 µM
[51] = second compound 1 µM, first compound 3.16 µM
[52] = second compound 1 µM, first compound 10 µM
[53] = second compound 3.16 µM, first compound 0.1 µM
[54] = second compound 3.16 µM, first compound 1 µM
[55] = second compound 3.16 µM, first compound 3.16 µM
[56] = second compound 3.16 µM, first compound 10 µM
[57] = second compound 10 µM, first compound 0.1 µM
[58] = second compound 10 µM, first compound 1 µM
[59] = second compound 10 µM, first compound 3.16 µM
[60] = second compound 10 µM, first compound 10 µM

CCc1c2c(nc3ccc(O)cc13)-c1cc3c(c(=O)n1C2)COC(=O)[C@]3(O)CC + Cc1[nH]c2ccc(F)cc2c1-c1nc2c3cccnc3c3ncccc3c2[nH]1
IC50 (second compound 0.0316 µM): 1.23 nM | IC50 (second compound 0.1 µM): 1.22 nM | IC50 (second compound 0.316 µM): < 0.999 nM | IC50 (second compound 1 µM): < 0.999 nM | IC50 (second compound 3.16 µM): < 0.999 nM | IC50 (second compound 10 µM): < 0.999 nM | viability, T/C [1]: 57.7% | viability, T/C [2]: 15.4% | viability, T/C [3]: 10.2% | viability, T/C [4]: 6.35% | viability, T/C [5]: 4.8% | viability, T/C [6]: 1.3% | viability, T/C [7]: 58% | viability, T/C [8]: 12.6% | viability, T/C [9]: 10.4% | viability, T/C [10]: 6.87% | viability, T/C [11]: 4.33% | viability, T/C [12]: 1.74% | viability, T/C [13]: 36% | viability, T/C [14]: 18.3% | viability, T/C [15]: 10.3% | viability, T/C [16]: 7.63% | viability, T/C [17]: 4.58% | viability, T/C [18]: 1.81% | viability, T/C [19]: 4.92% | viability, T/C [20]: 3.7% | viability, T/C [21]: 3.69% | viability, T/C [22]: 2.84% | viability, T/C [23]: 2.04% | viability, T/C [24]: 0.8% | viability, T/C [25]: 4.87% | viability, T/C [26]: 4.58% | viability, T/C [27]: 3.82% | viability, T/C [28]: 3.33% | viability, T/C [29]: 1.4% | viability, T/C [30]: 0.62% | viability, T/C [31]: 4.11% | viability, T/C [32]: 3.78% | viability, T/C [33]: 4.08% | viability, T/C [34]: 3.15% | viability, T/C [35]: 1.92% | viability, T/C [36]: 0.73%

COc1cc(C2c3cc4c(cc3C(OC3OC5COC(C)OC5C(O)C3O)C3COC(=O)C23)OCO4)cc(OC)c1O (stereo not drawn) + Cc1[nH]c2ccc(F)cc2c1-c1nc2c3cccnc3c3ncccc3c2[nH]1
IC50 (second compound 0.0316 µM): 99.2 nM | IC50 (second compound 0.1 µM): 110 nM | IC50 (second compound 0.316 µM): 75.3 nM | IC50 (second compound 1 µM): < 31.6 nM | IC50 (second compound 3.16 µM): < 31.6 nM | IC50 (second compound 10 µM): < 31.6 nM | viability, T/C [4]: 87.7% | viability, T/C [37]: 49.2% | viability, T/C [6]: 26.8% | viability, T/C [38]: 9.94% | viability, T/C [39]: 10.6% | viability, T/C [40]: 5.84% | viability, T/C [10]: 89.3% | viability, T/C [41]: 52.3% | viability, T/C [12]: 25.4% | viability, T/C [42]: 12% | viability, T/C [43]: 9.69% | viability, T/C [44]: 6.24% | viability, T/C [16]: 68.3% | viability, T/C [45]: 44% | viability, T/C [18]: 23.7% | viability, T/C [46]: 11.6% | viability, T/C [47]: 7.51% | viability, T/C [48]: 4.85% | viability, T/C [22]: 4.67% | viability, T/C [49]: 4.98% | viability, T/C [24]: 4.59% | viability, T/C [50]: 5.09% | viability, T/C [51]: 4.85% | viability, T/C [52]: 3.15% | viability, T/C [28]: 4.03% | viability, T/C [53]: 5.21% | viability, T/C [30]: 3.82% | viability, T/C [54]: 5.26% | viability, T/C [55]: 4.55% | viability, T/C [56]: 3.18% | viability, T/C [34]: 4.92% | viability, T/C [57]: 4.45% | viability, T/C [36]: 4.88% | viability, T/C [58]: 4.78% | viability, T/C [59]: 4.32% | viability, T/C [60]: 4.34%

Cc1cccc(N(C)C(=O)C2C(O)CCN2c2nc(C)cc(C(F)(F)F)c2C#N)c1 (stereo not drawn) + Cc1[nH]c2ccc(F)cc2c1-c1nc2c3cccnc3c3ncccc3c2[nH]1
IC50 (second compound 0.0316 µM): > 10000 nM | IC50 (second compound 0.1 µM): > 10000 nM | IC50 (second compound 0.316 µM): > 10000 nM | IC50 (second compound 1 µM): < 31.6 nM | IC50 (second compound 3.16 µM): < 31.6 nM | IC50 (second compound 10 µM): < 31.6 nM | viability, T/C [4]: 108% | viability, T/C [37]: 82.3% | viability, T/C [6]: 105% | viability, T/C [38]: 76.1% | viability, T/C [39]: 98% | viability, T/C [40]: 100% | viability, T/C [10]: 105% | viability, T/C [41]: 82.2% | viability, T/C [12]: 107% | viability, T/C [42]: 69.1% | viability, T/C [43]: 105% | viability, T/C [44]: 105% | viability, T/C [16]: 83.7% | viability, T/C [45]: 53.2% | viability, T/C [18]: 70% | viability, T/C [46]: 78.8% | viability, T/C [47]: 94.7% | viability, T/C [48]: 76.3% | viability, T/C [22]: 4% | viability, T/C [49]: 6.22% | viability, T/C [24]: 5.36% | viability, T/C [50]: 4.57% | viability, T/C [51]: 4.11% | viability, T/C [52]: 2.68% | viability, T/C [28]: 3.63% | viability, T/C [53]: 4.69% | viability, T/C [30]: 4.7% | viability, T/C [54]: 4.75% | viability, T/C [55]: 3.97% | viability, T/C [56]: 2.92% | viability, T/C [34]: 4.3% | viability, T/C [57]: 3.62% | viability, T/C [36]: 4.75% | viability, T/C [58]: 3.64% | viability, T/C [59]: 4.04% | viability, T/C [60]: 3.25%

Cn1ncnc1[C@H]1c2n[nH]c(=O)c3cc(F)cc(c23)N[C@@H]1c1ccc(F)cc1 + Cc1[nH]c2ccc(F)cc2c1-c1nc2c3cccnc3c3ncccc3c2[nH]1
IC50 (second compound 0.0316 µM): 149 nM | IC50 (second compound 0.1 µM): 73.5 nM | IC50 (second compound 0.316 µM): 53 nM | IC50 (second compound 1 µM): < 0.999 nM | IC50 (second compound 3.16 µM): < 0.999 nM | IC50 (second compound 10 µM): < 0.999 nM | viability, T/C [1]: 105% | viability, T/C [2]: 79.6% | viability, T/C [3]: 86.7% | viability, T/C [4]: 62.3% | viability, T/C [5]: 67.7% | viability, T/C [6]: 33.4% | viability, T/C [7]: 100% | viability, T/C [8]: 80.1% | viability, T/C [9]: 83% | viability, T/C [10]: 48.9% | viability, T/C [11]: 53.1% | viability, T/C [12]: 32% | viability, T/C [13]: 96.4% | viability, T/C [14]: 81.9% | viability, T/C [15]: 68.9% | viability, T/C [16]: 54.8% | viability, T/C [17]: 46.5% | viability, T/C [18]: 27.5% | viability, T/C [19]: 5.11% | viability, T/C [20]: 4.97% | viability, T/C [21]: 5.21% | viability, T/C [22]: 4.33% | viability, T/C [23]: 4.79% | viability, T/C [24]: 4.17% | viability, T/C [25]: 4.43% | viability, T/C [26]: 4.31% | viability, T/C [27]: 4.37% | viability, T/C [28]: 4.14% | viability, T/C [29]: 4.64% | viability, T/C [30]: 3.96% | viability, T/C [31]: 4.02% | viability, T/C [32]: 3.63% | viability, T/C [33]: 5.14% | viability, T/C [34]: 4.68% | viability, T/C [35]: 4.53% | viability, T/C [36]: 4.33%

From PubChem BioAssay AID2060486 (Molecular Pharmacology Branch, DTP, NCI, 2025)
